Publication PMC4538536, “In Silico-Based High-Throughput Screen for Discovery of Novel Combinations for Tuberculosis Treatment” (Antimicrobial Agents and Chemotherapy, 2015)
≈ marks a conversion by molar mass, not a printed value. Where two headings read alike, the source gives them in different places.

Key:
M. tuberculosis H37Rv [1] = assay: In vitro bactericidal-effect analysis (CFU enumeration of checkerboard wells); type: cell-based, Mycobacterium tuberculosis; details: single drug at its MIC (FIC of 1); positive = reduction in CFU
Procedure: For determining the extent of the bactericidal effect, sample wells which remained blue in the resazurin microtiter assay (REMA) and whose ΣFICs were within the synergistic-to-additive range (<0.7 for doublets and <1.5 for triplets) were plated on Middlebrook 7H10 agar medium and incubated at 37°C for 21 to 28 days, following which bacterial colonies were enumerated to obtain the net reduction in CFU in comparison to the counts for the untreated controls at the start of drug testing, as well as to that achieved when M. tuberculosis was exposed to each drug alone.

M. tuberculosis H37Rv [2] = assay: MIC determination, resazurin-based microplate assay; type: cell-based, Mycobacterium tuberculosis; details: Mycobacterium tuberculosis, single drug
[3] = In vivo pharmacokinetics in infected mice (plasma, LC-MS/MS); design: species or system BALB/c mice; details: BALB/c, mouse, plasma, po, steady state, infected mice
Procedure: The drugs were formulated in 0.5% hydroxypropyl methyl cellulose (HPMC)–0.1% Tween 80 suspensions as 3- or 4-drug combinations. Formulations were prepared by weighing and adding each compound to the bottle, according to the design. Formulation vehicle was added, and the suspension was stirred overnight. Only uniform suspensions were used, while those that precipitated were abandoned. Formulations were prepared every week, and compound stability was estimated at the end of the week. Pharmacokinetics (PK) analysis was performed on infected mice on the 20th day of dosing. Blood samples were collected from each mouse at 0.5, 2, 4, 6, and 24 h after compound administration. Blood samples of about 30 μl were collected from mice in all groups by serial sampling via the saphenous vein into Microvette CB300 tubes (Starstedt, Germany) coated with EDTA, and plasma (10 μl) was separated following centrifugation. Plasma samples were stored at –20°C until analysis using liquid chromatography-tandem mass spectrometry (LC-MS/MS).
A 1-mg/ml stock solution of each compound was prepared in dimethyl sulfoxide (DMSO) for all of the analytes except PZA and LZD, for which the stock solution was 10 mg/ml in DMSO, and RIF, for which the stock solution was prepared in 50% acetonitrile in water. Three different sets of calibration standard (CS) combinations were prepared by 2-fold dilution of the stock solutions. CS set 1 contained analytes CLO, BDQ, PA824, PZA, and SQ109, CS set 2 contained analytes BTZ043, MXF, THI, EMB, and PZA, and CS set 3 contained LZD, INH, RIF, and PZA. A 16-point calibration curve was utilized for all analytes, and the standard curves ranged from 0.0005 to 20 μg/ml except for PZA and LZD, for which the standard curve range was 0.006 to 200 μg/ml. Plasma samples were precipitated by adding chilled acetonitrile (1:10, vol/vol) containing carbamazepine as an internal standard (10 ng/ml). Samples were vortexed and then centrifuged at 4,000 rpm for 30 min at 10°C. The resulting supernatant was mixed with the mobile phase (50% acetonitrile in water with 0.1% formic acid). Five microliters of the sample was injected on to a liquid chromatographic system (Acquity ultraperformance liquid chromatography [UPLC] system, Waters, Milford, MA) coupled to a triple-quadrupole mass spectrometer (Xevo TQ-S; Waters, Milford, MA). Samples were separated on an LC column (ACE 3 C18, 50 by 4.6 mm, 3 μm particle size; Advanced Chromatography Technologies, Aberdeen, Scotland) by isocratic elution with 40 parts of 20 mM ammonium formate containing 0.1% (vol/vol) formic acid and 60 parts of acetonitrile at a flow rate of 0.5 ml/min with a run time of 4 min. Samples were acquired in positive ion mode and detected by multiple reaction monitoring (MRM). The concentrations of the analyte were determined from a standard curve obtained by plotting known concentrations of the analyte against peak area ratios (analyte/internal standard peak response).
PK analyses of the plasma concentration-time relationships were performed with Phoenix software (version 6.2; Pharsight, USA). A noncompartmental analysis program, model 200, was used to calculate PK parameters. The maximum concentration of drug in plasma (Cmax), time to Cmax (Tmax), elimination half-life (t1/2), and area under the concentration-time curve (AUC) from time zero to infinity (AUC0–∞) were estimated. AUC was computed using the trapezoidal rule (linear up and log down), and the AUC0–∞ was considered only when the extrapolated AUC was not more than 20% of the original value. A minimum of three sample points in the terminal slope were used to calculate half-life.

| SMILES | ΔLog10 CFU/ml at the MIC (M. tuberculosis H37Rv [1]) | MIC (M. tuberculosis H37Rv [2]) | other results |
| --- | --- | --- | --- |
| NCC[C@H](O)C(=O)N[C@@H]1C[C@H](N)[C@@H](O[C@H]2O[C@H](CN)[C@@H](O)[C@H](O)[C@H]2O)[C@H](O)[C@H]1O[C@H]1O[C@H](CO)[C@@H](O)[C@H](N)[C@H]1O [Amikacin] | −0.20 Log10 CFU/ml | 0.43 µM (≈ 0.252 µg/mL) |  |
| C[C@H]1COC2(CCN(c3nc(=O)c4cc(C(F)(F)F)cc([N+](=O)[O-])c4s3)CC2)O1 [BTZ043] | 1.40 Log10 CFU/ml | 0.0009 µM (≈ 0.000388 µg/mL) | AUC(0-t) ([3]; 25 mg/kg, Group 6 triplet BTZ043 37.5/THI 800/SQ109 25 mg/kg oral, read-out: AUC0-24 in Triplet): 15000 ± 6200 ng·h/mL; Cmax ([3]; 25 mg/kg, Group 6 triplet BTZ043 37.5/THI 800/SQ109 25 mg/kg oral, read-out: Cmax in Triplet): 2100 ± 400 ng/mL; AUC(0-t) ([3]; 200 mg/kg, Group 3 triplet BTZ043 37.5/SQ109 25/MXF 200 mg/kg oral, read-out: AUC0-24 in Triplet): 11100 ± 5000 ng·h/mL; Cmax ([3]; 200 mg/kg, Group 3 triplet BTZ043 37.5/SQ109 25/MXF 200 mg/kg oral, read-out: Cmax in Triplet): 2300 ± 900 ng/mL |
| CC[C@H]1OC(=O)[C@H](C)[C@@H](O[C@H]2C[C@@](C)(OC)[C@@H](O)[C@H](C)O2)[C@H](C)[C@@H](O[C@@H]2O[C@H](C)C[C@H](N(C)C)[C@H]2O)[C@](C)(OC)C[C@@H](C)C(=O)[C@H](C)[C@@H](O)[C@]1(C)O [Clarithromycin] | 0.75 Log10 CFU/ml | 9.63 µM (≈ 7.2 µg/mL) |  |
| CC(C)/N=c1\cc2n(-c3ccc(Cl)cc3)c3ccccc3nc-2cc1Nc1ccc(Cl)cc1 [Clofazimine] | 0.72 Log10 CFU/ml | 0.26 µM (≈ 0.123 µg/mL) | AUC(0-t) ([3]; 50 mg/kg, Group 1 triplet CFZ 20/BDQ 25/PA824 50 mg/kg oral, read-out: AUC0-24 in Triplet): 42800 ± 5400 ng·h/mL; Cmax ([3]; 50 mg/kg, Group 1 triplet CFZ 20/BDQ 25/PA824 50 mg/kg oral, read-out: Cmax in Triplet): 2300 ± 200 ng/mL; AUC(0-t) ([3]; 150 mg/kg, Group 1 quartet CFZ 20/BDQ 25/PA824 50/PZA 150 mg/kg oral, read-out: AUC0-24 in Quartet): 48000 ± 5200 ng·h/mL; Cmax ([3]; 150 mg/kg, Group 1 quartet CFZ 20/BDQ 25/PA824 50/PZA 150 mg/kg oral, read-out: Cmax in Quartet): 2400 ± 200 ng/mL |
| N[C@@H]1CON=C1O [D-Cycloserine] | 0.87 Log10 CFU/ml | 30.6 µM (≈ 3.12 µg/mL) |  |
| NNC(=O)c1ccncc1 [Isoniazid] | 1.02 Log10 CFU/ml | 0.22 µM (≈ 0.0302 µg/mL) | AUC(0-t) ([3]; 100 mg/kg, Ref. regimen triplet INH 30/RIF 10/EMB 100 mg/kg oral, read-out: AUC0-24 in Triplet): 19800 ± 4700 ng·h/mL; Cmax ([3]; 100 mg/kg, Ref. regimen triplet INH 30/RIF 10/EMB 100 mg/kg oral, read-out: Cmax in Triplet): 10800 ± 2900 ng/mL; AUC(0-t) ([3]; 150 mg/kg, Ref. regimen quartet INH 30/RIF 10/EMB 100/PZA 150 mg/kg oral, read-out: AUC0-24 in Quartet): 12000 ± 3400 ng·h/mL; Cmax ([3]; 150 mg/kg, Ref. regimen quartet INH 30/RIF 10/EMB 100/PZA 150 mg/kg oral, read-out: Cmax in Quartet): 7000 ± 3200 ng/mL |
